# Measurements from patent US10471076B2, “Compositions and methods to treat vision disorders” (YouHealth Biotech, Limited, priority 2014, dated 2019).
# Where “and” joins values, the source holds several entries; their conditions need not be identical. Identical values can stand only once.
# Columns and labels:
# [1] = target: T1, αA-crystallin (Y118D) aggregates (Homo sapiens, UniProt P02489, Y118D); assay: Serial live-cell imaging, single-particle tracking of aggregates; type: cell-based; details: human lens progenitor cells; 40 mM sterol in 1% DMSO for 4 h
# T1 construct: expressed in transfected cells; host or cells: human lens progenitor cells, G418-selected
# T1 sequence (P02489 1-173 Y118D): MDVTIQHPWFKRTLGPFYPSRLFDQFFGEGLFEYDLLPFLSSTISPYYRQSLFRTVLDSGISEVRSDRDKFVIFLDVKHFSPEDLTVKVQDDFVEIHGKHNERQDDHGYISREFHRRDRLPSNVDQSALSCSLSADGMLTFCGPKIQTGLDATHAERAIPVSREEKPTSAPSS
# Method: Live-cell imaging. Human lens progenitor cells were transfected with plasmids containing αA-crystallin (Y118D) mutant. After a 24 h transfection period, the cells with stable expression of αA-crystallin (Y118D) mutant were screen by incubation in culture medium containing 0.8 mg ml^−1 G418 for 7 days. Then the obtained cells were seeded onto glass bottom cell culture dishes (In Vitro Scientific) and treated with 1% DMSO, 40 mM cholesterol in 1% DMSO or 40 mM lanosterol in 1% DMSO for 4 h. Fresh culture medium was added, and the cells were analysed by serial live-cell imaging. Live-cell images were viewed with an Olympus IX81 microscope and captured with CellSens Dimension soft-ware (Olympus). Quantitative analysis of the size of aggregates was performed by measuring the fluorescence intensity of p62-positive aggregates using single-par-tide tracking in live-cell imaging. The live-cell imaging was conducted using three biological replicates with 1-8 repetitions each.
# [2] = test system: amyloid-like fibrils of crystallin proteins; assay: Re-dissolution of pre-formed amyloid-like fibrils (ThT fluorescence, TEM, turbidity); type: biochemical, human; details: 0.2 mg/ml aggregates; 500 μM sterols in 500 μM DPPC liposome (b129 prints 500 mM), 37° C., 24 h; TEM and ThT fluorescence; concentration-dependent
# Method: Crystallin aggregates were formed by incubating 5 mg ml^−1 protein solution at 60° C. for 2 h (α-crystallins) or 37° C. for 48 h (β- and γ-crystallins) in the presence of 1 M guanidine chloride. The preformed aggregates were re-suspended in PBS at a final protein concentration of 0.2 mg ml^−1 and were treated with 500 μM sterols in 500 μM DPPC liposome and incubated at 37° C. for 24 h. Aggregates treated with 500 μM DPPC liposome only were used as the controls. […] Aggregates treated with 500 μM DPPC liposome only were used as the controls.
# All protein samples were prepared in 20 mM PBS buffer containing 150 mM NaCl, 1 mM EDTA and 1 mM DTT.
# Protein aggregation and aggregate dissociation. The aggregates of the wild-type and mutated αA- and αB-crystallin proteins were obtained by heating the protein solutions containing 1 M guanidine chloride (ultrapure, Sigma-Aldrich) at a con-centration of 5 mg/ml at 60° C. for 2 h. The aggregates of the wild-type and mutated b- and c-crystallins were prepared by heating the protein solutions containing 1 M guanidine chloride at 37° C. for 48 h. The formation of aggregates was confirmed by ThT fluorescence, turbidity (absorbance at 400 nm) and transmission electron microscopy (TEM) observations. […] After 24 h of treatment, the protein solutions were used for ThT fluorescence, turbidity and negatively stained TEM observations. […]
# dog eyes with cataracts = assay: Treatment of cataractous lenses in dogs in vivo; set-up: key to cataract grade before treatment, treatment group / cataract grade after treatment, treatment group: Grade 0: absence of opacification (no cataract); Grade 1: a slight degree of opacification (incipient stage); Grade 2: presence of diffuse opacification involving almost the entire lens (immature stage); Grade 3: presence of extensive, thick opacification involving the entire lens (mature stage)
# Method: Preparation of drug-loaded nanoparticles. Lanosterol was loaded into a lipid-polymer hybrid nanoparticle through an adapted nanoprecipitation method^34. In brief, the desired concentration of lanosterol was mixed with polycaprolactone (PCL) polymer dissolved in acetonitrile. Lecithin and 1,2-distearoyl-sn-glycero-3-phosphoethanolamine-N-carboxy(polyethylene glycol) 2000 (DSPE-PEG-COOH) were dissolved in a 4% ethanol aqueous solution at 20% of the PCL polymer weight and heated above 60° C. The lanosterol/PCL solution was then added into the preheated lipid solution under gentle stirring followed by rigorous vortexing for 3 min. The mixture solution was then stirred for 2 h to allow the nanoparticles to form and the acetonitrile to evaporate. Next, the nanoparticle solution was washed three times using an Amicon Ultra-4 centrifugal filter (Millipore) with a molecular weight cut-off of 10 kDa to remove the remaining organic solvent and free molecules. The resulting nanoparticles were then re-suspended in PBS buffer for sub-sequent use. The size, size distribution, and surface zeta potential of the drug-loaded nanoparticles were characterized by dynamic light scattering. The loading yield of lanosterol was quantified by high-performance liquid chromatography.
# Treatment of cataractous lenses in dogs. To assess the effect of lanosterol treatment on cataracts in live animals, dogs were pre-medicated with intramuscular injections of acepromaxine and butorphanol. After 20 min, induction of anaesthesia was performed by application of intravenous propofol. Dogs were then immediately intubated and maintained on oxygen and 2% isoflurane at […]. Lanosterol (100 mg)-loaded nanoparticles were initially injected into the vitreous cavity in the test eye using a 28-gauge needle, and then were given every 3 days for the duration of the experiment. Treatment eyes or sham eyes were randomized. […] Degree of cataract severity was assessed by a blinded examiner and scored based on canine cataract stage, shown below^35. Improvements in lens clarity and transparency were quantified. […]
structure (smiles),measurement,setting,value
"CC(C)=CCC[C@@H](C)[C@H]1CC[C@@]2(C)C3=C(CC[C@]12C)[C@@]1(C)CC[C@H](O)C(C)(C)[C@@H]1CC3 [lanosterol, 3β-Hydroxy-8,24-lanostadiene; 8,24-Lanostadien-3β-ol]",effect on αA-crystallin (Y118D) aggregates in live cells,[1],could effectively diminish crystallin aggregates
same,re-dissolution of aggregated crystallin proteins from amyloid-like fibrils,[2],successfully re-dissolved the aggregated crystallin proteins
same,"cataract grade before treatment, treatment group","dog eyes with cataracts; dog study eye, baseline, n=7",1 and 2 and 3
same,"cataract grade after treatment, treatment group","dog eyes with cataracts; dog study eye, intravitreal lanosterol (100 mg)-loaded nanoparticles every 3 days plus 25 mM lanosterol eye drops three times daily, 6 weeks, n=7",0 and 1
same,cataract severity / lens clarity,"dog eyes with cataracts; dogs in vivo, 6 weeks of lanosterol, P<0.009, Wilcoxon Test",significantly reduced cataract severity and increased lens clarity
